Test results taken from patent publication US12194081B2, “ARGINASE1 polypeptides” (IO BIOTECH APS, priority 2018, dated 2025).

System: PBMCs from cancer patients and healthy donors
Test: in vitro IFNγ ELISPOT of PBMCs after 7 days with peptide and IL-2
Type: cell-based, human
Details: for cancer patients showing responses in IFNγ ELISPOT: out of 16 cancer patients (8 melanoma, 6 multiple myeloma, 1 breast cancer, 1 renal cell carcinoma); for cancer patients showing responses in IFNγ ELISPOT / healthy donors showing responses in IFNγ ELISPOT: strong responses counted for ArgLong2, FIG. 2; for healthy donors showing responses in IFNγ ELISPOT: out of 19 healthy donors; for responses in IFNγ ELISPOT (in words): PBMCs from 6 healthy donors, peptide and low dose IL-2 for 1 week, FIG. 1
Description: PBMCs from healthy donors were isolated using density gradient separation over LymphoprepTM (STEMCELL Technologies) and cryopreserved at -150° C. in FBS supplemented with 10% DMSO. PBMCs from cancer patients were isolated from blood sample a minimum of four weeks after the termination of any anti-cancer therapy. The protocol was approved by the Scientific Ethics Committee for The Capital Region of Denmark and conducted in accordance with the provisions of the Declaration of Helsinki. Written informed consent from the patients was obtained before study entry. […] The sequences of the peptides used in these experiments are shown in full below in alignment with each other, and are also set out in the section entitled “Sequences”). Peptides are described by SEQ ID NO, by name, or by reference to the start and end positions of each peptide sequence within the full length sequence of Arginase 1. Each may be used interchangeably. For example, the peptide of SEQ ID NO: 1 may alternatively be referred to by the name ArgLong2, or may alternatively be referred to as […]-206 (given a start position of 169 and end position of 206). The intended reference in each case will be clear from the context. For in vitro ELISPOT, PBMCs from cancer patients and healthy donors were pulsed with 20 μM of Arginase 1-derived peptides and 120 U/ml IL-2 in 24-well plates for 7 days before being used in an ELISPOT assay. The cells were placed in 96-well nitrocellulose ELISPOT plates (MultiScreen MAIP […]; Millipore) pre-coated with IFNγ capture antibody (Mabtech). Arginase peptides added to a final concentration of 5 μM and plates incubated at 37° C. for 14-16 hours. After the incubation the cells were washed off and secondary biotinylated Ab (Mabtech, cat. 3420-6-1000) was added for 2 hours at room temperature. Unbound secondary antibody was washed off and streptavidin conjugated alkaline phosphatase (AP) (Mabtech, cat. 3310-10) was added for 1 hour at room temperature. Unbound conjugated enzyme was washed off and the assay was developed by adding BCIP/NBT substrate (Mabtech, cat. 3650-10). Developed ELISPOT plates were analyzed on CTL ImmunoSpot S6 Ultimate-V analyzer using Immunospot software v5.1. Responses were reported as the difference between average numbers of spots in wells stimulated with Arginase 1 and wells without added peptide.

Sequence: KTLGIKYFSMTEVDRLGIGK (Peptide fragment of human Arginase 1 (Arg1-20)) [Arg191-210, previously described 20-mer Arginase 1 peptide (WO2018065563), reference compound]
- cancer patients showing responses in IFNγ ELISPOT: 3 cancer patients
- healthy donors showing responses in IFNγ ELISPOT: 7 healthy donors

Sequence: ISAKDIVYIGLRDVDPGEHYILKTLGIKYFSM (Peptide fragment of human Arginase 1 (ArgLong3)) [32-mer, positions 169-200 of full length human Arginase 1]
- responses in IFNγ ELISPOT (in words): low or no responses

Sequence: ISAKDIVYIGLRDVDPGEHYILKTLGIKYFSMTEVDRLGIGK (Peptide fragment of human Arginase 1 (ArgLong)) [42-mer, positions 169-210 of full length human Arginase 1]
- responses in IFNγ ELISPOT (in words): low or no responses

Sequence: DVDPGEHYILKTLGIKYFSM (Peptide fragment of human Arginase 1 (Arg1-19)) [Arg181-200, previously described 20-mer Arginase 1 peptide (WO2018065563), reference compound]
- cancer patients showing responses in IFNγ ELISPOT: 6 cancer patients
- healthy donors showing responses in IFNγ ELISPOT: 4 healthy donors

Sequence: AKDIVYIGLRDVDPGEHYIL (Peptide fragment of human Arginase 1 (Arg1-18)) [Arg171-190, previously described 20-mer Arginase 1 peptide (WO2018065563), reference compound]
- cancer patients showing responses in IFNγ ELISPOT: 3 cancer patients
- healthy donors showing responses in IFNγ ELISPOT: 3 healthy donors
